Laboratory results taken from ChEMBL document CHEMBL3046339, “Insecticidal activity of Maytenus species (Celastraceae) nortriterpene quinone methides against codling moth, Cydia pomonella (L.) (Lepidoptera: tortricidae)” (2000).
In brackets after ≈: the same amount, converted by molar mass.

Columns and labels:
Assay type in all cases: functional
Cydia pomonella [1] = experiment: Insecticidal activity against Cydia pomonella (codling moth) at 20 mg/kg assessed as growth regulation measured as number of head capsules of larvae after 10 days of continuous exposure Rvb = (1.5 +/- 0.2%)
Cydia pomonella [2] = experiment: Insecticidal activity against Cydia pomonella (codling moth) at 12 mg/kg assessed as growth regulation measured as number of head capsules of larvae after 10 days of continuous exposure Rvb = (1.5 +/- 0.2%)
Cydia pomonella [3] = experiment: Insecticidal activity against Cydia pomonella (codling moth) at 8 mg/kg assessed as growth regulation measured as number of head capsules of larvae after 10 days of continuous exposure Rvb = (1.5 +/- 0.2%)
Cydia pomonella [4] = experiment: Insecticidal activity against Cydia pomonella (codling moth) at 1 mg/kg assessed as growth regulation measured as number of head capsules of larvae after 5 days of continuous exposure (reference value: 0.2 +/- 0.2%)
Cydia pomonella [5] = experiment: Antifeedant activity against Cydia pomonella (codling moth) at 20 mg/kg diet topically measured after 10 days of continuous exposure (reference value: 6.7 +/- 6.7%)
Cydia pomonella [6] = experiment: Antifeedant activity against Cydia pomonella (codling moth) at 1 mg/kg diet topically measured after 10 days of continuous exposure (reference value: 6.7 +/- 6.7%)
Cydia pomonella [7] = experiment: Antifeedant activity against Cydia pomonella (codling moth) at 2 mg/kg diet topically measured after 5 days of continuous exposure (reference value: 6.7 +/- 6.7%)
Cydia pomonella [8] = experiment: Antifeedant activity against Cydia pomonella (codling moth) at 1 mg/kg diet topically measured after 5 days of continuous exposure (reference value: 6.7 +/- 6.7%)
Cydia pomonella [9] = experiment: Insecticidal activity against Cydia pomonella (codling moth) assessed as mortality treated diet topically measured after 10 days of continuous exposure; settings: topical, 240 h
Cydia pomonella [10] = experiment: Insecticidal activity against Cydia pomonella (codling moth) assessed as mortality at 18 mg/kg diet topically measured after 10 days of continuous exposure (reference value: 3.3 +/- 3.3%); settings: topical, 240 h
Cydia pomonella [11] = experiment: Insecticidal activity against Cydia pomonella (codling moth) assessed as mortality at 16 mg/kg diet topically measured after 10 days of continuous exposure (reference value: 3.3 +/- 3.3%); settings: topical, 240 h
Cydia pomonella [12] = experiment: Insecticidal activity against Cydia pomonella (codling moth) at 1 mg/kg assessed as growth regulation measured as number of head capsules of larvae after 10 days of continuous exposure Rvb = (1.5 +/- 0.2%)
Cydia pomonella [13] = experiment: Insecticidal activity against Cydia pomonella (codling moth) at 12 mg/kg assessed as growth regulation measured as number of head capsules of larvae after 5 days of continuous exposure (reference value: 0.2 +/- 0.2%)
Cydia pomonella [14] = experiment: Insecticidal activity against Cydia pomonella (codling moth) at 6 mg/kg assessed as growth regulation measured as number of head capsules of larvae after 5 days of continuous exposure (reference value: 0.2 +/- 0.2%)
Cydia pomonella [15] = experiment: Insecticidal activity against Cydia pomonella (codling moth) at 4 mg/kg assessed as growth regulation measured as number of head capsules of larvae after 5 days of continuous exposure (reference value: 0.2 +/- 0.2%)
Cydia pomonella [16] = experiment: Insecticidal activity against Cydia pomonella (codling moth) assessed as mortality at 4 mg/kg diet topically measured after 10 days of continuous exposure (reference value: 3.3 +/- 3.3%); settings: topical, 240 h
Cydia pomonella [17] = experiment: Insecticidal activity against Cydia pomonella (codling moth) assessed as mortality at 6 mg/kg diet topically measured after 10 days of continuous exposure (reference value: 3.3 +/- 3.3%); settings: topical, 240 h
Cydia pomonella [18] = experiment: Insecticidal activity against Cydia pomonella (codling moth) assessed as mortality at 1 mg/kg diet topically measured after 10 days of continuous exposure (reference value: 3.3 +/- 3.3%); settings: topical, 240 h
Cydia pomonella [19] = experiment: Insecticidal activity against Cydia pomonella (codling moth) assessed as mortality diet topically measured after 5 days of continuous exposure; settings: topical, 120 h
Cydia pomonella [20] = experiment: Insecticidal activity against Cydia pomonella (codling moth) at 2 mg/kg assessed as growth regulation measured as number of head capsules of larvae after 10 days of continuous exposure Rvb = (1.5 +/- 0.2%)

CC1=C(O)C(=O)C=C2C1=CC=C1[C@@]2(C)CC[C@@]2(C)[C@@H]3C[C@](C)(O)C(=O)C[C@]3(C)CC[C@]12C [20ALPHA-HYDROXYTINGENONE]
Activity (Cydia pomonella [1]): 0 | Activity (Cydia pomonella [2]): 0.3 | Activity (Cydia pomonella [3]): 0.2 | Activity (Cydia pomonella [4]): 0.1 | Activity (Cydia pomonella [5]): 100% | Activity (Cydia pomonella [6]): 6.7% | Activity (Cydia pomonella [7]): 36.7% | Activity (Cydia pomonella [8]): 6.7% | LC50 (Cydia pomonella [9]): 8.5 mg/mL (≈ 19.5 mM) | mortality at 18 mg/kg (Cydia pomonella [10]): 93.3% | mortality at 16 mg/kg (Cydia pomonella [11]): 93.3% | Activity (Cydia pomonella [12]): 1.2 | Activity (Cydia pomonella [13]): 0 | Activity (Cydia pomonella [14]): 0 | Activity (Cydia pomonella [15]): 0 | mortality at 4 mg/kg (Cydia pomonella [16]): 16.7% | mortality at 6 mg/kg (Cydia pomonella [17]): 23.3% | mortality at 1 mg/kg (Cydia pomonella [18]): 3.3% | LC50 (Cydia pomonella [19]): 13 mg/mL (≈ 29.8 mM) | Activity (Cydia pomonella [20]): 1.4
